In US11986532B2 (Arvinas Operations, Inc., priority 2021, dated 2024):
Like-named read-outs stand apart in the source and are kept apart here.

Biological target: T1, BCL6 (Homo sapiens, UniProt P41182)
T1 construct: endogenous in cells; host or cells: T47D breast cancer epithelial cells
Experiment: Immunofluorescence protocol for high content imaging of BCL6 (degradation) in T47D cells, 3 days compound treatment
Assay type: cell-based
Settings: for Dmax: read-out: Mean Dmax (%)** category; for DC50: read-out: Mean DC50 (nM)* category
How it was run: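 Remaining BCL6 in breast cancer T47D cells was measured by high-content immunofluorescence imaging after 3 days of treatment with serially diluted compound (top 0.1 or 1 μM). Nuclei were stained with Hoechst and cells with CellMask.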

[1] = T47D cells, 3 days compound treatment

Dmax (T47D) [%]	DC50 [nM]	DC50 [1] [nM]	Dmax [1] [%]	Compound
50 to 70	< 10	–	–	CNC(=O)COc1cc2cc(Nc3nc(N4CCN(CC5CCC6(CC5)CN(c5c(F)ccc7c5CN(C5CCC(=O)NC5=O)C7=O)C6)CC4)ncc3Cl)ccc2n(C(C)C)c1=O (centres unmarked) [Compound 314, 2-{[6-({5-chloro-2-[4-({2-[2-(2,6-dioxopiperidin-3-yl)-5-fluoro-1-oxo-2,3-dihydro-1H-isoindol-4-yl]-2-azaspiro[3.5]nonan-7-yl}methyl)piperazin-1-yl]pyrimidin-4-yl}amino)-2-oxo-1-(propan-2-yl)-1,2-dihydroquinolin-3-yl]oxy}-N-methylacetamide]
–	–	≥ 100	≥ 70	CNC(=O)COc1cc2cc(Nc3nc(N4CCC5(CCN(CC6(F)CCN(c7ccc(F)c8c7C(=O)N(C7CCC(=O)NC7=O)C8)CC6)CC5)CC4)ncc3Cl)ccc2n(C(C)C)c1=O (centres unmarked) [Compound 130, 2-{[6-({5-chloro-2-[9-({1-[2-(2,6-dioxopiperidin-3-yl)-7-fluoro-3-oxo-2,3-dihydro-1H-isoindol-4-yl]-4-fluoropiperidin-4-yl}methyl)-3,9-diazaspiro[5.5]undecan-3-yl]pyrimidin-4-yl}amino)-2-oxo-1-(propan-2-yl)-1,2-dihydroquinolin-3-yl]oxy}-N-methylacetamide]
50 to 70	< 10	–	–	CNC(=O)COc1cc2c(F)c(Nc3cc(N4CCC(F)(CN5CCC6(CC5)CN(c5ccc7c(c5)CN(C5CCC(=O)NC5=O)C7=O)C6)CC4)ncc3Cl)ccc2n(C(C)C)c1=O (centres unmarked) [Compound 262, 2-{[6-({5-chloro-2-[4-({2-[2-(2,6-dioxopiperidin-3-yl)-1-oxo-2,3-dihydro-1H-isoindol-5-yl]-2,7-diazaspiro[3.5]nonan-7-yl}methyl)-4-fluoropiperidin-1-yl]pyridin-4-yl}amino)-5-fluoro-2-oxo-1-(propan-2-yl)-1,2-dihydroquinolin-3-yl]oxy}-N-methylacetamide]
–	–	< 10	50 to 70	CNC(=O)COc1cc2cc(Nc3nc(N4CCC(F)(CN5CCC6(CC5)CCN(c5cc(F)cc7c5CN(C5CCC(=O)NC5=O)C7=O)CC6)CC4)ncc3Cl)ccc2n(C(C)C)c1=O (centres unmarked) [Compound 73, 2-{[6-({5-chloro-2-[4-({9-[2-(2,6-dioxopiperidin-3-yl)-6-fluoro-1-oxo-2,3-dihydro-1H-isoindol-4-yl]-3,9-diazaspiro [5.5]undecan-3-yl}methyl)-4-fluoropiperidin-1-yl]pyrimidin-4-yl}amino)-2-oxo-1-(propan-2-yl)-1,2-dihydroquinolin-3-yl]oxy}-N-methylacetamide]
50 to 70	< 10	–	–	CNC(=O)COc1cc2c(F)c(Nc3cc(N4CCC(F)(CN5CCC6(CC5)CN(c5ccc7c(c5F)CN(C5CCC(=O)NC5=O)C7=O)C6)CC4)ncc3Cl)ccc2n(C(C)C)c1=O (centres unmarked) [Compound 259, 2-{[6-({5-chloro-2-[4-({2-[2-(2,6-dioxopiperidin-3-yl)-4-fluoro-1-oxo-2,3-dihydro-1H-isoindol-5-yl]-2,7-diazaspiro[3.5]nonan-7-yl}methyl)-4-fluoropiperidin-1-yl]pyridin-4-yl}amino)-5-fluoro-2-oxo-1-(propan-2-yl)-1,2-dihydroquinolin-3-yl]oxy}-N-methylacetamide]
–	–	< 10	50 to 70	CNC(=O)COc1cc2cc(Nc3nc(N4CCN(CC5CCN(c6cc(F)cc7c6CN(C6CCC(=O)NC6=O)C7=O)CC5)CC4)ncc3Cl)ccc2n(C(C)C)c1=O (centres unmarked) [Compound 105, 2-{[6-({5-chloro-2-[4-({1-[2-(2,6-dioxopiperidin-3-yl)-6-fluoro-1-oxo-2,3-dihydro-1H-isoindol-4-yl]piperidin-4-yl}methyl)piperazin-1-yl]pyrimidin-4-yl}amino)-2-oxo-1-(propan-2-yl)-1,2-dihydroquinolin-3-yl]oxy}-N-methylacetamide]
50 to 70	< 10	–	–	CNC(=O)COc1cc2cc(Nc3cc(N4CCC(F)(CN5CCC6(CC5)CN(c5ccc7c(c5F)CN(C5CCC(=O)NC5=O)C7=O)C6(C)C)CC4)ncc3Cl)ccc2n(C(C)C)c1=O (centres unmarked) [Compound 257, 2-{[6-({5-chloro-2-[4-({2-[2-(2,6-dioxopiperidin-3-yl)-4-fluoro-1-oxo-2,3-dihydro-1H-isoindol-5-yl]-1,1-dimethyl-2,7-diazaspiro[3.5]nonan-7-yl}methyl)-4-fluoropiperidin-1-yl]pyridin-4-yl}amino)-2-oxo-1-(propan-2-yl)-1,2-dihydroquinolin-3-yl]oxy}-N-methylacetamide]
50 to 70	< 10	–	–	CNC(=O)COc1cc2cc(Nc3nc(N4CCC(N5CCC56CN(C5CCCN(c7ccc8c(c7)CN(C7CCC(=O)NC7=O)C8=O)C5)C6)CC4)ncc3Cl)ccc2n(C(C)C)c1=O (centres unmarked) [Compound 222, 2-{[6-({5-chloro-2-[4-(6-{1-[2-(2,6-dioxopiperidin-3-yl)-1-oxo-2,3-dihydro-1H-isoindol-5-yl]piperidin-3-yl}-1,6-diazaspiro[3.3]heptan-1-yl)piperidin-1-yl]pyrimidin-4-yl}amino)-2-oxo-1-(propan-2-yl)-1,2-dihydroquinolin-3-yl]oxy}-N-methylacetamide]

The remaining lines, values behind:

Compound	Dmax (T47D) [%]	DC50 [nM]	DC50 [1] [nM]	Dmax [1] [%]
CNC(=O)COc1cc2cc(Nc3nc(N4CCC(CN5[C@@H](C)CC6(C[C@@H]5C)CN(c5ccc7c(c5)C(=O)N(C5CCC(=O)NC5=O)C7=O)C6)CC4)ncc3Cl)ccc2n(C(C)C)c1=O (stereo partly drawn) [Compound 255, 2-[(6-{[5-chloro-2-(4-{[(6S,8S)-2-[2-(2,6-dioxopiperidin-3-yl)-1,3-dioxo-2,3-dihydro-1H-isoindol-5-yl]-6,8-dimethyl-2,7-diazaspiro[3.5]nonan-7-yl]methyl}piperidin-1-yl)pyrimidin-4-yl]amino}-2-oxo-1-(propan-2-yl)-1,2-dihydroquinolin-3-yl)oxy]-N-methylacetamide]	50 to 70	< 10	–	–
CNC(=O)COc1cc2cc(Nc3nc(N4CCC(CN5CCN(c6ccc7c(c6)C(=O)N(C6CCC(=O)NC6=O)C7=O)CC5)CC4)ncc3Cl)ccc2n(C(C)C)c1=O (centres unmarked) [Compound 404, 2-{[6-({5-chloro-2-[4-({4-[2-(2,6-dioxopiperidin-3-yl)-1,3-dioxo-2,3-dihydro-1H-isoindol-5-yl]piperazin-1-yl}methyl)piperidin-1-yl]pyrimidin-4-yl}amino)-2-oxo-1-(propan-2-yl)-1,2-dihydroquinolin-3-yl]oxy}-N-methylacetamide]	50 to 70	10 to 50	–	–
CNC(=O)COc1cc2cc(Nc3nc(N4CCC(O[C@H]5C[C@H](N6CCN(C7CN(c8ccc9c(c8F)CN(C8CCC(=O)NC8=O)C9=O)C7)CC6)C5)CC4)ncc3Cl)ccc2n(C(C)C)c1=O (some centres unmarked) [Compound 422, 2-({6-[(5-chloro-2-{4-[(1r,3r)-3-(4-{1-[2-(2,6-dioxopiperidin-3-yl)-4-fluoro-1-oxo-2,3-dihydro-1H-isoindol-5-yl]azetidin-3-yl}piperazin-1-yl)cyclobutoxy]piperidin-1-yl}pyrimidin-4-yl)amino]-2-oxo-1-(propan-2-yl)-1,2-dihydroquinolin-3-yl}oxy)-N-methylacetamide]	≥ 70	< 10	–	–
CNC(=O)COc1cc2cc(Nc3nc(N4CCC(O[C@H]5C[C@H](N6CCC(c7cc(F)c8c(c7)C(=O)N(C7CCC(=O)NC7=O)C8)C(F)C6)C5)CC4)ncc3Cl)ccc2n(C(C)C)c1=O (some centres unmarked) [Compound 281, 2-({6-[(5-chloro-2-{4-[(1r,3r)-3-{4-[2-(2,6-dioxopiperidin-3-yl)-7-fluoro-3-oxo-2,3-dihydro-1H-isoindol-5-yl]-3-fluoropiperidin-1-yl}cyclobutoxy]piperidin-1-yl}pyrimidin-4-yl)amino]-2-oxo-1-(propan-2-yl)-1,2-dihydroquinolin-3-yl}oxy)-N-methylacetamide]	< 50	10 to 50	–	–
CNC(=O)COc1cc2cc(Nc3nc(N4CCC(CN5CCC6(CN(c7cccc8c7C(=O)N(C7CCC(=O)NC7=O)C8=O)C6)C(F)C5)CC4)ncc3Cl)ccc2n(C(C)C)c1=O (centres unmarked) [Compound 325, 2-{[6-({5-chloro-2-[4-({2-[2-(2,6-dioxopiperidin-3-yl)-1,3-dioxo-2,3-dihydro-1H-isoindol-4-yl]-5-fluoro-2,7-diazaspiro[3.5]nonan-7-yl}methyl)piperidin-1-yl]pyrimidin-4-yl}amino)-2-oxo-1-(propan-2-yl)-1,2-dihydroquinolin-3-yl]oxy}-N-methylacetamide]	50 to 70	< 10	–	–
CNC(=O)COc1cc2cc(Nc3nc(N4CCC(O[C@H]5C[C@H](N6CCN(c7ccc8c(c7F)CN([C@H]7CCC(=O)NC7=O)C8=O)CC6)C5)CC4)ncc3Cl)ccc2n(C(C)C)c1=O [Compound 388, 2-({6-[(5-chloro-2-{4-[(1r,3r)-3-(4-{2-[(3S)-2,6-dioxopiperidin-3-yl]-4-fluoro-1-oxo-2,3-dihydro-1H-isoindol-5-yl}piperazin-1-yl)cyclobutoxy]piperidin-1-yl}pyrimidin-4-yl)amino]-2-oxo-1-(propan-2-yl)-1,2-dihydroquinolin-3-yl}oxy)-N-methylacetamide]	50 to 70	< 10	–	–
CNC(=O)COc1cc2cc(Nc3nc(N4CCC(O[C@H]5C[C@H](N6CCC7(CC6)CN(c6ccc8c(c6)CN(C6CCC(=O)NC6=O)C8=O)C7)C5)CC4)ncc3Cl)ccc2n(C(C)C)c1=O (some centres unmarked) [Compound 366, 2-({6-[(5-chloro-2-{4-[(1r,3r)-3-{2-[2-(2,6-dioxopiperidin-3-yl)-1-oxo-2,3-dihydro-1H-isoindol-5-yl]-2,7-diazaspiro [3.5]nonan-7-yl}cyclobutoxy]piperidin-1-yl}pyrimidin-4-yl)amino]-2-oxo-1-(propan-2-yl)-1,2-dihydroquinolin-3-yl}oxy)-N-methylacetamide]	≥ 70	< 10	–	–
CNC(=O)COc1cc2cc(Nc3nc(N4CCC(O[C@H]5C[C@H](N6CCC(c7ccc8c(c7OC)CN(C7CCC(=O)NC7=O)C8=O)CC6)C5)CC4)ncc3Cl)ccc2n(C(C)C)c1=O (some centres unmarked) [Compound 72, 2-[[6-[[5-chloro-2-[4-[3-[4-[2-(2,6-dioxo-3-piperidyl)-4-methoxy-1-oxo-isoindolin-5-yl]-1-piperidyl]cyclobutoxy]-1-piperidyl]pyrimidin-4-yl]amino]-1-isopropyl-2-oxo-3-quinolyl]oxy]-N-methyl-acetamide]	–	–	< 10	50 to 70
